{"source": "paper PMC12396409", "about": "“Screening and hit evaluation of a microbial metabolite library against the pathogenic Plasmodium falciparum and Toxoplasma gondii parasites” (International Journal for Parasitology: Drugs and Drug …, 2025)", "key": {"[1]": {"tested_on": "P. falciparum 3D7 parasites", "experiment": "P. falciparum growth inhibition assay, 2-cycle (120 h treatment), delayed-death screen and dose-response", "type": "cell-based, Plasmodium falciparum", "conditions": "for activity at 2 µg/mL: Plasmodium falciparum"}, "[2]": {"tested_on": "P. falciparum 3D7 parasites", "experiment": "P. falciparum growth inhibition assay, 1-cycle (72 h treatment), SYBR DNA staining (library screen at 2 μg/mL and dose-response)", "type": "cell-based, Plasmodium falciparum", "conditions": "for activity at 2 µg/mL: Plasmodium falciparum"}, "[3]": {"tested_on": "T. gondii RH strain (RH-Tub-eYFP) tachyzoites", "experiment": "microbe, parasite or virus in culture", "type": "cell-based, Toxoplasma gondii", "conditions": "72 h; for percent parasite growth at 2 µg/mL: Toxoplasma gondii"}, "[4]": {"conditions": "P. falciparum 3D7, 120 h, parasite screen at 2 μg/mL, % growth, replicate 1"}, "[5]": {"conditions": "P. falciparum 3D7, 120 h, parasite screen at 2 μg/mL, % growth, replicate 2"}, "[6]": {"conditions": "P. falciparum 3D7, 72 h, parasite screen at 2 μg/mL, % growth, replicate 1"}, "[7]": {"conditions": "P. falciparum 3D7, 72 h, parasite screen at 2 μg/mL, % growth, replicate 2"}, "[8]": {"conditions": "T. gondii, parasite screen at 2 μg/mL, % growth, replicate 1"}, "[9]": {"conditions": "T. gondii, parasite screen at 2 μg/mL, % growth, replicate 2"}, "[10]": {"conditions": "T. gondii, screen at 2 μg/mL, replicate 1, read-out: Tg_72h_%Growth_Rep1"}, "[11]": {"conditions": "T. gondii, screen at 2 μg/mL, replicate 2, read-out: Tg_72h_%Growth_Rep2"}}, "note": "Read-outs that look alike come from different tables or passages of the source. Where a SMILES comes first, the peptide text is derived from it. [ ]: non-standard residue; d: D form. d(aIle) = CC[C@H](C)[C@@H](N)C(=O)O; NMeL = CN[C@@H](CC(C)C)C(=O)O; Hiv = CC(C)[C@H](O)C(=O)O"}
{"smiles": "CC[C@H]1C[C@@H]2CC[C@@H](O2)[C@@H](C)C(=O)O[C@H](C)C[C@H]2CC[C@H](O2)[C@H](C)C(=O)O[C@@H](C)C[C@@H]2CC[C@@H](O2)[C@@H](C)C(=O)O[C@H](C)C[C@H]2CC[C@H](O2)[C@H](C)C(=O)O1", "note": "[BIA-M1055]", "values": [{"measurement": "Pf_120h_%Growth_Rep1", "setting": "[1]; [4]", "value": 15.60, "unit": "%"}, {"measurement": "Pf_120h_%Growth_Rep2", "setting": "[1]; [5]", "value": 21.38, "unit": "%"}, {"measurement": "Pf_72h_%Growth_Rep1", "setting": "[2]; [6]", "value": 7.23, "unit": "%"}, {"measurement": "Pf_72h_%Growth_Rep2", "setting": "[2]; [7]", "value": 6.66, "unit": "%"}, {"measurement": "Tg_72h_%Growth_Rep1", "setting": "[3]; [8]", "value": 3.56, "unit": "%"}, {"measurement": "Tg_72h_%Growth_Rep2", "setting": "[3]; [9]", "value": 1.37, "unit": "%"}]}
{"smiles": "CN(C)[C@@H]1C(O)=C(C(N)=O)C(=O)[C@@]2(O)C(O)=C3C(=O)c4c(O)ccc(Cl)c4[C@@H](O)[C@H]3C[C@@H]12", "note": "[Demeclocycline]", "values": [{"measurement": "activity at 2 µg/mL", "setting": "[1]; 3D7, 120 h, P. falciparum, 120 h, screen at 2 μg/mL, replicate 1, read-out: Pf_120h_%Growth_Rep1", "value": 101, "unit": "%"}, {"measurement": "activity at 2 µg/mL", "setting": "[1]; 3D7, 120 h, P. falciparum, 120 h, screen at 2 μg/mL, replicate 2, read-out: Pf_120h_%Growth_Rep2", "value": 94.8, "unit": "%"}, {"measurement": "activity at 2 µg/mL", "setting": "[2]; 3D7, 72 h, P. falciparum, 72 h, screen at 2 μg/mL, replicate 1, read-out: Pf_72h_%Growth_Rep1", "value": 85.8, "unit": "%"}, {"measurement": "activity at 2 µg/mL", "setting": "[2]; 3D7, 72 h, P. falciparum, 72 h, screen at 2 μg/mL, replicate 2, read-out: Pf_72h_%Growth_Rep2", "value": 87, "unit": "%"}, {"measurement": "percent parasite growth at 2 µg/mL", "setting": "[3]; [10]", "value": 157, "unit": "%"}, {"measurement": "percent parasite growth at 2 µg/mL", "setting": "[3]; [11]", "value": 107, "unit": "%"}]}
{"smiles": "C[C@@H]1Cc2ccc(C(=O)N[C@@H](Cc3ccccc3)C(=O)O)c(O)c2C(=O)O1", "note": "[BIA-O1196]", "values": [{"measurement": "Pf_120h_%Growth_Rep1", "setting": "[1]; [4]", "value": 89.68, "unit": "%"}, {"measurement": "Pf_120h_%Growth_Rep2", "setting": "[1]; [5]", "value": 126.27, "unit": "%"}, {"measurement": "Pf_72h_%Growth_Rep1", "setting": "[2]; [6]", "value": 83.68, "unit": "%"}, {"measurement": "Pf_72h_%Growth_Rep2", "setting": "[2]; [7]", "value": 90.59, "unit": "%"}, {"measurement": "Tg_72h_%Growth_Rep1", "setting": "[3]; [8]", "value": 126.36, "unit": "%"}, {"measurement": "Tg_72h_%Growth_Rep2", "setting": "[3]; [9]", "value": 89.16, "unit": "%"}]}
{"smiles": "CCc1c(Cl)c(O)c(Cl)c(O)c1C(=O)O[C@H]1[C@H](O)[C@H](OC)[C@H](OC/C2=C\\C=C\\C[C@H](O)/C(C)=C/[C@H](CC)[C@@H](O[C@@H]3OC(C)(C)[C@@H](OC(=O)C(C)C)[C@H](O)[C@@H]3O)/C(C)=C/C(C)=C/C[C@@H]([C@@H](C)O)OC2=O)O[C@@H]1C", "note": "[fidaxomicin, reference compound]", "values": [{"measurement": "activity at 2 µg/mL", "setting": "[1]; 3D7, library screen at 2 μg/mL, 120 h, % growth, replicate 1, read-out: Pf_120h_%Growth_Rep1", "value": 13.8, "unit": "%"}, {"measurement": "activity at 2 µg/mL", "setting": "[1]; 3D7, library screen at 2 μg/mL, 120 h, % growth, replicate 2, read-out: Pf_120h_%Growth_Rep2", "value": -3.62, "unit": "%"}, {"measurement": "activity at 2 µg/mL", "setting": "[2]; 3D7, library screen at 2 μg/mL, 72 h, % growth, replicate 1, read-out: Pf_72h_%Growth_Rep1", "value": 3.04, "unit": "%"}, {"measurement": "activity at 2 µg/mL", "setting": "[2]; 3D7, library screen at 2 μg/mL, 72 h, % growth, replicate 2, read-out: Pf_72h_%Growth_Rep2", "value": -1.42, "unit": "%"}, {"measurement": "selectivity for P. falciparum in the screens", "setting": "[2]; active against the parasite at 2 μg/mL, no anti-tumour (NS-1) or cytotoxic (fibroblast) activity at 5 μg/mL", "value": "selective for P. falciparum"}, {"measurement": "percent parasite growth at 2 µg/mL", "setting": "[3]; library screen at 2 μg/mL, % growth, replicate 1, read-out: Tg_72h_%Growth_Rep1", "value": 85.9, "unit": "%"}, {"measurement": "percent parasite growth at 2 µg/mL", "setting": "[3]; library screen at 2 μg/mL, % growth, replicate 2, read-out: Tg_72h_%Growth_Rep2", "value": 92.4, "unit": "%"}]}
{"smiles": "CC[C@H](C)[C@H]1NC(=O)[C@H](C(C)C)OC(=O)[C@H](CC(C)C)N(C)C(=O)[C@H](C(C)C)NC(=O)[C@H](C(C)C)OC(=O)[C@@H](CC(C)C)NC1=O", "note": "[Sporidesmolide II] (cyclo([Hiv]V[NMeL][Hiv][d(aIle)][dL]))", "values": [{"measurement": "Pf_120h_%Growth_Rep1", "setting": "[1]; P. falciparum, 120 h, parasite screen 2 μg/mL, % growth, replicate 1", "value": 86.28, "unit": "%"}, {"measurement": "Pf_120h_%Growth_Rep2", "setting": "[1]; P. falciparum, 120 h, parasite screen 2 μg/mL, % growth, replicate 2", "value": 130.73, "unit": "%"}, {"measurement": "Pf_72h_%Growth_Rep1", "setting": "[2]; P. falciparum, 72 h, parasite screen 2 μg/mL, % growth, replicate 1", "value": 88.48, "unit": "%"}, {"measurement": "Pf_72h_%Growth_Rep2", "setting": "[2]; P. falciparum, 72 h, parasite screen 2 μg/mL, % growth, replicate 2", "value": 54.25, "unit": "%"}, {"measurement": "Tg_72h_%Growth_Rep1", "setting": "[3]; T. gondii, parasite screen 2 μg/mL, % growth, replicate 1", "value": 96.52, "unit": "%"}, {"measurement": "Tg_72h_%Growth_Rep2", "setting": "[3]; T. gondii, parasite screen 2 μg/mL, % growth, replicate 2", "value": 86.44, "unit": "%"}]}
{"smiles": "CN(C)c1ccc(O)c2c1C[C@H]1C[C@H]3[C@H](N(C)C)C(O)=C(C(N)=O)C(=O)[C@@]3(O)C(O)=C1C2=O.Cl", "note": "[BIA-M1472]", "values": [{"measurement": "Pf_120h_%Growth_Rep1", "setting": "[1]; [4]", "value": 1.23, "unit": "%"}, {"measurement": "Pf_120h_%Growth_Rep2", "setting": "[1]; [5]", "value": 73.75, "unit": "%"}, {"measurement": "Pf_72h_%Growth_Rep1", "setting": "[2]; [6]", "value": 19.15, "unit": "%"}, {"measurement": "Pf_72h_%Growth_Rep2", "setting": "[2]; [7]", "value": 16.74, "unit": "%"}, {"measurement": "Tg_72h_%Growth_Rep1", "setting": "[3]; [8]", "value": 5.81, "unit": "%"}, {"measurement": "Tg_72h_%Growth_Rep2", "setting": "[3]; [9]", "value": 37.51, "unit": "%"}]}
{"smiles": "O=c1cc(CO)occ1O", "note": "[BIA-K1696]", "values": [{"measurement": "Pf_120h_%Growth_Rep1", "setting": "[1]; P. falciparum 3D7, 120 h, library screen at 2 μg/mL, % growth, replicate 1", "value": 76.01, "unit": "%"}, {"measurement": "Pf_120h_%Growth_Rep2", "setting": "[1]; P. falciparum 3D7, 120 h, library screen at 2 μg/mL, % growth, replicate 2", "value": 110.07, "unit": "%"}, {"measurement": "Pf_72h_%Growth_Rep1", "setting": "[2]; P. falciparum 3D7, 72 h, library screen at 2 μg/mL, % growth, replicate 1", "value": 83.60, "unit": "%"}, {"measurement": "Pf_72h_%Growth_Rep2", "setting": "[2]; P. falciparum 3D7, 72 h, library screen at 2 μg/mL, % growth, replicate 2", "value": 96.29, "unit": "%"}, {"measurement": "Tg_72h_%Growth_Rep1", "setting": "[3]; T. gondii RH, library screen at 2 μg/mL, % growth, replicate 1", "value": 111.73, "unit": "%"}, {"measurement": "Tg_72h_%Growth_Rep2", "setting": "[3]; T. gondii RH, library screen at 2 μg/mL, % growth, replicate 2", "value": 90.68, "unit": "%"}]}
{"smiles": "C=C(CC[C@]12O[C@H](C(=O)O)[C@@](O)(C(=O)O)[C@](C(=O)O)(O1)[C@H](OC(=O)/C=C/[C@@H](C)C[C@@H](C)CC)[C@H]2O)[C@@H](OC(C)=O)[C@H](C)Cc1ccccc1", "note": "[Zaragozic acid A]", "values": [{"measurement": "activity at 2 µg/mL", "setting": "[1]; 3D7, P. falciparum, 120 h, screen at 2 μg/mL, replicate 1, read-out: Pf_120h_%Growth_Rep1", "value": 104, "unit": "%"}, {"measurement": "activity at 2 µg/mL", "setting": "[1]; 3D7, P. falciparum, 120 h, screen at 2 μg/mL, replicate 2, read-out: Pf_120h_%Growth_Rep2", "value": 107, "unit": "%"}, {"measurement": "activity at 2 µg/mL", "setting": "[2]; 3D7, P. falciparum, 72 h, screen at 2 μg/mL, replicate 1, read-out: Pf_72h_%Growth_Rep1", "value": 92.7, "unit": "%"}, {"measurement": "activity at 2 µg/mL", "setting": "[2]; 3D7, P. falciparum, 72 h, screen at 2 μg/mL, replicate 2, read-out: Pf_72h_%Growth_Rep2", "value": 117, "unit": "%"}, {"measurement": "percent parasite growth at 2 µg/mL", "setting": "[3]; [10]", "value": 122, "unit": "%"}, {"measurement": "percent parasite growth at 2 µg/mL", "setting": "[3]; [11]", "value": 82.3, "unit": "%"}]}
